{"source": "patent US4162324A", "about": "“Antibiotics 890A1 and 890A3” (Merck & Co., Inc., priority 1977, dated 1979)", "key": {"[1]": {"system": "Alcaligenes faecalis ATCC 213", "experiment": "In vitro antibacterial spectrum profile, zone of inhibition", "format": "cell-based", "settings": "ATCC213, 182 μg/ml, read-out: Inhib. Zone Diam.", "description": "(§1) The test to determine the antibiotic spectrum profile is carried out by application of a 0.015 ml. droplet on the surface of a 100×15 mm. petri plate containing 5 ml. of seeded nutrient agar and 0.2% yeast extract. The antibiotic 890A1 is tested at a level of 33 μg/ml. and the antibiotic 890A3 is tested at a level of 182 μg/ml."}, "Bacillus sp. MB-633": {"system": "Bacillus sp. MB-633", "experiment": "In vitro antibacterial spectrum profile, zone of inhibition", "format": "cell-based", "settings": "SP.MB633, 182 μg/ml, read-out: Inhib. Zone Diam.", "description": "as §1"}, "[2]": {"system": "Corynebacterium pseudoidph. ATCC 9742", "experiment": "In vitro antibacterial spectrum profile, zone of inhibition", "format": "cell-based", "settings": "ATCC9742, 182 μg/ml, read-out: Inhib. Zone Diam.", "description": "as §1"}, "[3]": {"system": "Proteus vulgaris ATCC 21100", "experiment": "In vitro antibacterial spectrum profile, zone of inhibition", "format": "cell-based", "settings": "ATCC21100, 182 μg/ml, read-out: Inhib. Zone Diam.", "description": "as §1"}, "Proteus vulgaris MB-1012": {"system": "Proteus vulgaris MB-1012", "experiment": "In vitro antibacterial spectrum profile, zone of inhibition", "format": "cell-based", "settings": "MB1012, 182 μg/ml, read-out: Inhib. Zone Diam."}, "[4]": {"system": "Pseudomonas aeruginosa MB-979", "experiment": "In vitro antibacterial spectrum profile, zone of inhibition", "format": "cell-based", "settings": "MB979, 182 μg/ml, read-out: Inhib. Zone Diam."}, "[5]": {"system": "Serratia marcescens ATCC 990", "experiment": "In vitro antibacterial spectrum profile, zone of inhibition", "format": "cell-based", "settings": "ATCC990, 182 μg/ml, read-out: Inhib. Zone Diam."}, "[6]": {"system": "Staphlococcus aureus ATCC 6538 P", "experiment": "In vitro antibacterial spectrum profile, zone of inhibition", "format": "cell-based", "settings": "read-out: Inhib. Zone Diam."}, "[7]": {"system": "Bacillus subtilis ATCC 6633", "experiment": "In vitro antibacterial spectrum profile, zone of inhibition", "format": "cell-based", "settings": "ATCC6633, 182 μg/ml, read-out: Inhib. Zone Diam."}, "Sarcina lutea ATCC 9341": {"system": "Sarcina lutea ATCC 9341", "experiment": "In vitro antibacterial spectrum profile, zone of inhibition", "format": "cell-based", "settings": "Micrococcus luteus, ATCC9341; 182 μg/ml; read-out: Inhib. Zone Diam."}, "[8]": {"system": "Staphylococcus aureus MB-698", "experiment": "In vitro antibacterial spectrum profile, zone of inhibition", "format": "cell-based", "settings": "MB698, read-out: Inhib. Zone Diam."}, "[9]": {"system": "Streptococcus faecalis MB-753", "experiment": "In vitro antibacterial spectrum profile, zone of inhibition", "format": "cell-based", "settings": "Enterococcus faecalis, MB753; 182 μg/ml; read-out: Inhib. Zone Diam."}, "[10]": {"system": "Brucella bronchiseptica ATCC 4617", "experiment": "microbe, parasite or virus in culture", "format": "cell-based", "settings": "Bordetella bronchiseptica, ATCC4617, read-out: Inhib. Zone Diam."}, "[11]": {"system": "Salmonella gallinarum MB-1287", "experiment": "In vitro antibacterial spectrum profile, zone of inhibition", "format": "cell-based", "settings": "Salmonella enterica, 182 μg/ml, read-out: Inhib. Zone Diam."}, "[12]": {"system": "Vibrio percolans ATCC 8461", "experiment": "In vitro antibacterial spectrum profile, zone of inhibition", "format": "cell-based", "settings": "Comamonas terrigena, ATCC8461; 182 μg/ml; read-out: Inhib. Zone Diam."}, "[13]": {"system": "Xanthomonas vesicatoria MB-815", "experiment": "In vitro antibacterial spectrum profile, zone of inhibition", "format": "cell-based", "settings": "MB815, 182 μg/ml, read-out: Inhib. Zone Diam."}, "Escherichia coli MB-1418": {"system": "Escherichia coli MB-1418", "experiment": "In vitro antibacterial spectrum profile, zone of inhibition", "format": "cell-based", "settings": "MB1418, 182 μg/ml, read-out: Inhib. Zone Diam."}, "[14]": {"system": "Pseudomonas stutzeri ATCC 11607", "experiment": "In vitro antibacterial spectrum profile, zone of inhibition", "format": "cell-based", "settings": "Stutzerimonas stutzeri, ATCC11607; 182 μg/ml; read-out: Inhib. Zone Diam."}, "[15]": {"system": "Klebsiella pneumoniae MB-1264", "experiment": "In vitro antibacterial spectrum profile, zone of inhibition", "format": "cell-based", "settings": "MB1264, 182 μg/ml, read-out: Inhib. Zone Diam."}, "[16]": {"system": "Aerobacter aerogenes MB-835", "experiment": "In vitro antibacterial spectrum profile, zone of inhibition", "format": "cell-based", "settings": "Klebsiella aerogenes, MB835; 182 μg/ml; read-out: Inhib. Zone Diam."}, "[17]": {"system": "Erwinia atroseptica ATCC 4466", "experiment": "In vitro antibacterial spectrum profile, zone of inhibition", "format": "cell-based", "settings": "Pectobacterium atrosepticum, ATCC4466; 182 μg/ml; read-out: Inhib. Zone Diam."}, "[18]": {"system": "Pseudomonas aeruginosa MB-2824", "experiment": "In vitro antibacterial spectrum profile, zone of inhibition", "format": "cell-based", "settings": "MB2824, 182 μg/ml, read-out: Inhib. Zone Diam."}, "[19]": {"system": "Escherichia coli ATCC 9637", "experiment": "In vitro antibacterial spectrum profile, zone of inhibition, synthetic medium", "format": "cell-based", "settings": "ATCC9637, 182 μg/ml, synthetic medium, read-out: Inhib. Zone Diam."}, "[20]": {"system": "Streptococcus faecium MB-2820", "experiment": "In vitro antibacterial spectrum profile, zone of inhibition", "format": "cell-based", "settings": "Enterococcus faecium, MB2820; 182 μg/ml; read-out: Inhib. Zone Diam."}, "[21]": {"system": "Streptococcus agalactiae MB-2875", "experiment": "In vitro antibacterial spectrum profile, zone of inhibition", "format": "cell-based", "settings": "MB2875, 182 μg/ml, read-out: Inhib. Zone Diam."}, "[22]": {"system": "Vibrio percolans resistant to ceph. C MB-2566", "experiment": "In vitro antibacterial spectrum profile, zone of inhibition", "format": "cell-based", "settings": "Comamonas terrigena, read-out: Inhib. Zone Diam."}, "[23]": {"system": "Proteus vulgaris (episome) MB-2112", "experiment": "In vitro antibacterial spectrum profile, zone of inhibition", "format": "cell-based", "settings": "182 μg/ml, read-out: Inhib. Zone Diam."}, "[24]": {"system": "Proteus mirabilis MB-3126", "experiment": "In vitro antibacterial spectrum profile, zone of inhibition", "format": "cell-based", "settings": "MB3126, 182 μg/ml, read-out: Inhib. Zone Diam."}, "[25]": {"system": "Vibrio percolans ATCC 8461 + 2 × 10^5 units/ml penicillinase", "experiment": "In vitro antibacterial spectrum profile, zone of inhibition, with penicillinase", "format": "cell-based", "settings": "Comamonas terrigena, ATCC8461, 182 μg/ml, read-out: Inhib. Zone Diam."}, "penicillinase": {"system": "penicillinase", "experiment": "Resistance to degradation by penicillinase", "format": "biochemical", "settings": "compared with 890A1", "description": "Bio-Gel fraction 63 is combined with fractions 61, 66 and 67 from the Bio-Gel column. These four combined fractions have a total of 235 absorbance units at 300 nm. To this is added 0.2 ml. of 1M Tris-HCl buffer, ph 7.5, and 0.2 ml. of penicillinase [Difco \"Bacto-Penase,\" containing 500,000 units per ml. (1000 LU/ml.) wherein the term LU refers to Levy units; 1,000 LU will inactivate 500,000 units of penicillin G].\nAfter 113 minutes at 23° C., an additional 0.2 ml. of penicillinase is added. After an additional 7 hours at room temperature, another 0.2 ml. of penicillinase is added, and after an additional two hours at room temperature, the reaction mixture is chilled in an ice bath. The terminated reaction mixture is diluted to 15 ml. by addition of 5 ml. of deionized water. The absorbance of the diluted reacted preparation is 6.3 at 300 nm of which 2.64 is extinguishable by reaction with cysteine."}, "Electrophoresis": {"experiment": "Electrophoresis", "format": "physicochemical", "settings": "neutral pH"}, "[26]": {"system": "Vibrio percolans ATCC 8461", "experiment": "Bioassay, agar plate disc-diffusion method", "settings": "890A1 value defined as standard"}}, "data": [{"molecule": "CC(=O)NCCSC1=C(C(=O)O)N2C(=O)C(C(C)O)C2C1", "note": "(centres unmarked) [Antibiotic 890A3]", "values": [{"measurement": "zone of inhibition at 182 µg/mL", "setting": "[1]", "value": 34, "unit": "mm"}, {"measurement": "zone of inhibition at 182 µg/mL", "setting": "Bacillus sp. MB-633", "value": 37, "unit": "mm"}, {"measurement": "zone of inhibition at 182 µg/mL", "setting": "[2]", "value": 36, "unit": "mm"}, {"measurement": "zone of inhibition at 182 µg/mL", "setting": "[3]", "value": 34, "unit": "mm"}, {"measurement": "zone of inhibition at 182 µg/mL", "setting": "Proteus vulgaris MB-1012", "value": 24, "unit": "mm"}, {"measurement": "zone of inhibition at 182 µg/mL", "setting": "[4]", "value": 0, "unit": "mm"}, {"measurement": "zone of inhibition at 182 µg/mL", "setting": "[5]", "value": 28, "unit": "mm"}, {"measurement": "zone of inhibition at 182 µg/mL", "setting": "[6]", "value": 36, "unit": "mm"}, {"measurement": "zone of inhibition at 182 µg/mL", "setting": "[7]", "value": 40, "unit": "mm"}, {"measurement": "zone of inhibition at 182 µg/mL", "setting": "Sarcina lutea ATCC 9341", "value": 44, "unit": "mm"}, {"measurement": "zone of inhibition at 182 µg/mL", "setting": "[8]", "value": 34, "unit": "mm"}, {"measurement": "zone of inhibition at 182 µg/mL", "setting": "[9]", "value": 17, "unit": "mm"}, {"measurement": "zone of inhibition at 182 µg/mL", "setting": "[10]", "value": 27, "unit": "mm"}, {"measurement": "zone of inhibition at 182 µg/mL", "setting": "[11]", "value": 33, "unit": "mm"}, {"measurement": "zone of inhibition at 182 µg/mL", "setting": "[12]", "value": 40, "unit": "mm"}, {"measurement": "zone of inhibition at 182 µg/mL", "setting": "[13]", "value": 26, "unit": "mm"}, {"measurement": "zone of inhibition at 182 µg/mL", "setting": "Escherichia coli MB-1418", "value": 32, "unit": "mm"}, {"measurement": "zone of inhibition at 182 µg/mL", "setting": "[14]", "value": 32, "unit": "mm"}, {"measurement": "zone of inhibition at 182 µg/mL", "setting": "[15]", "value": 33, "unit": "mm"}, {"measurement": "zone of inhibition at 182 µg/mL", "setting": "[16]", "value": 30, "unit": "mm"}, {"measurement": "zone of inhibition at 182 µg/mL", "setting": "[17]", "value": 30, "unit": "mm"}, {"measurement": "zone of inhibition at 182 µg/mL", "setting": "[18]", "value": 32, "unit": "mm"}, {"measurement": "zone of inhibition at 182 µg/mL", "setting": "[19]", "value": 29, "unit": "mm"}, {"measurement": "zone of inhibition at 182 µg/mL", "setting": "[20]", "value": 24, "unit": "mm"}, {"measurement": "zone of inhibition at 182 µg/mL", "setting": "[21]", "value": 30, "unit": "mm"}, {"measurement": "zone of inhibition at 182 µg/mL", "setting": "[22]", "value": 34, "unit": "mm"}, {"measurement": "zone of inhibition at 182 µg/mL", "setting": "[23]", "value": 38, "unit": "mm"}, {"measurement": "zone of inhibition at 182 µg/mL", "setting": "[24]", "value": 30, "unit": "mm"}, {"measurement": "zone of inhibition at 182 µg/mL", "setting": "[25]", "value": 35, "unit": "mm"}, {"measurement": "resistance to degradation by penicillinase", "setting": "penicillinase", "value": "relatively higher resistance"}, {"measurement": "movement on electrophoresis", "setting": "Electrophoresis", "value": "acidic substance which moves to the positive pole on electrophoresis at neutral pH"}, {"measurement": "antibiotic potency", "setting": "[26]", "value": 31, "unit": "units per HAEA300 unit"}]}]}
